pEC50: −log10 of the molar value.
What follows are molecules tested on RSV ATCC VR-1540 (A2) (assay: microbe, parasite or virus in culture). Settings: human respiratory syncytial virus, HEp-2, 96 h; Hep2 cells, incubated for 4 days, CPE detected with XTT assay (absorbance 450 nm); read-out: EC50 (nmol/L) against RSV A2 strain.
Format: cell-based

Row | Structure (SMILES) | pEC50
1 | CN1CCNC(C(F)(F)F)COc2ccc(Cl)cc2C(=O)N2CCCCC2c2cc3nc(N4CC(N)C4)cc1n3n2 (single isomer, unassigned) [Example 338] | 8.63
2 | CCC1c2cc3nc(N4CCC(N)C4)cc(n3n2)N(C)CCCCCOc2ccc(C)cc2C(=O)N1C (stereo in doubt) [Example 230, (18S)-3-[(3S)-3-aminopyrrolidin-1-yl]-18-ethyl-5,14,17-trimethyl-5,6,7,8,9,10,17,18-octahydro-16H-19,1-(metheno)pyrimido[6,1-h][1,7,9,10,13]benzoxatetraazacyclohexadecin-16-one] | 7.93
3 | CN1CCNC(=O)COc2ccc(F)cc2C(=O)N2CCCC[C@H]2c2cc3nc(N4CC(O)C4)cc1n3n2 [Example 3, (18aS)-2-fluoro-13-(3-hydroxyazetidin-1-yl)-J 1-methyl-8,9,10,11,19,20,21,22-octahydro-18aH,24H-18,15-(metheno)pyrido[2,1-l]pyrimido[6,1-h][1,4,7,9,10,13]benzoxapentaazacyclohexadecine-7,24(6H)-dione] | ~9.09
4 | CN1CCNC(=O)COc2ccc(F)cc2C(=O)N2CCCC[C@H]2c2cc3nc(N4CC(N)C4)cc1n3n2 [Example 4, (18aS)-13-(3-aminoazetidin-1-yl)-2-fluoro-11-methyl-8,9,10,11,19,20,21,22-octahydro-18aH,24H-18,15-(metheno)pyrido[2,1-l]pyrimido[6,1-h][1,4,7,9,10,13]benzoxapentaazacyclohexadecine-7,24(6H)-dione] | 8.57
5 | CNC1CN(c2cc3n4nc(cc4n2)[C@@H]2CCCCN2C(=O)c2cc(F)ccc2OCC(=O)NCCN3C)C1 [Example 5, (18aS)-2-fluoro-11-methyl-13-[3-(methylamino)azetidin-1-yl]-8,9,10,11,19,20,21,22-octahydro-18aH,24H-18,15-(metheno)pyrido[2,1-l]pyrimido[6,1-h][1,4,7,9,10,13]benzoxapentaazacyclohexadecine-7,24(6H)-dione] | 8.15
6 | CN1CCN(C)c2cc(N3CC(N)C3)nc3cc(nn23)[C@@H]2CCCCN2C(=O)c2cc(F)ccc2OCC1=O [Example 8, (18aS)-13-(3-aminoazetidin-1-yl)-2-fluoro-8,11-dimethyl-8,9,10,11,19,20,21,22-octahydro-18aH,24H-18,15-(metheno)pyrido[2,1-l]pyrimido[6,1-h][1,4,7,9,10,13]benzoxapentaazacyclohexadecine-7,24(6H)-dione] | 8.20
7 | CCN1CCN(C)c2cc(N3CC(N)C3)nc3cc(nn23)[C@@H]2CCCCN2C(=O)c2cc(F)ccc2OCC1=O [Example 9, (18aS)-13-(3-aminoazetidin-1-yl)-8-ethyl-2-fluoro-11-methyl-8,9,10,11,19,20,21,22-octahydro-18aH,24H-18,15-(metheno)pyrido[2,1-l]pyrimido[6,1-h][1,4,7,9,10,13]benzoxapentaazacyclohexadecine-7,24(6H)-dione] | 8.20
8 | CN1CC(C)(C)NC(=O)COc2ccc(F)cc2C(=O)N2CCCC[C@H]2c2cc3nc(N4CC(N)C4)cc1n3n2 [Example 11, (18aS)-13-(3-aminoazetidin-1-yl)-2-fluoro-9,9,11-trimethyl-8,9,10,11,19,20,21,22-octahydro-18aH,24H-18,15-(metheno)pyrido[2,1-l]pyrimido[6,1-h][1,4,7,9,10,13]benzoxapentaazacyclohexadecine-7,24(6H)-dione] | 8.81
9 | CC1Oc2ccc(F)cc2C(=O)N2CCCCC2c2cc3nc(N4CC(N)C4)cc(n3n2)N(C)CCNC1=O [Example 12, (18aS)-13-(3-aminoazetidin-1-yl)-2-fluoro-6,11-dimethyl-8,9,10,11,19,20,21,22-octahydro-18aH,24H-18,15-(metheno)pyrido[2,1-l]pyrimido[6,1-h][1,4,7,9,10,13]benzoxapentaazacyclohexadecine-7,24(6H)-dione] | ~8.70

Source: patent publication US20230069963A1, “PYRAZOLO[1,5-A]PYRIMIDINE MACROCYCLIC COMPOUND” (priority 2018, published 2023)
